The values that follow come from publication PMC8791944, “GLUT3 inhibitor discovery through in silico ligand screening and in vivo validation in eukaryotic expression systems” (Scientific Reports, 2022).

The IC50 is the midpoint of a concentration-inhibition curve.

The assay addresses T1, GLUT3 (Homo sapiens, UniProt P11169).
T1 construct: expressed in transfected cells; host or cells: Saccharomyces cerevisiae hxt0 strain EBY.S7 (fgy1)
T1 sequence (P11169 1-496): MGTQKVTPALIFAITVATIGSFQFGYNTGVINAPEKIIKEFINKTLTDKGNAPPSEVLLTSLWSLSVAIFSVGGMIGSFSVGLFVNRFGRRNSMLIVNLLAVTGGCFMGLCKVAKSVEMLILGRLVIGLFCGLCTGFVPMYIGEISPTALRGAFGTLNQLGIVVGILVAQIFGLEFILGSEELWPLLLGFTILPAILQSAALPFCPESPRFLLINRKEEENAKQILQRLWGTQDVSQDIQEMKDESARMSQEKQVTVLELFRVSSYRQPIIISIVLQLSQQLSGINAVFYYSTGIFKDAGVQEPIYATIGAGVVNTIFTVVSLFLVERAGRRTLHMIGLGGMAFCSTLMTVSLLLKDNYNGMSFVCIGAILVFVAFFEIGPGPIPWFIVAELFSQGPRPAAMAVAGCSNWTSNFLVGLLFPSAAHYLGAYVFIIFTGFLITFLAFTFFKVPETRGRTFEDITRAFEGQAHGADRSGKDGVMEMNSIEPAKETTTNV
Kind of assay: Glucose transport assay, wild-type GLUT3 expressed in hxt^0 yeast cells EBY.S7 (C^14-glucose uptake). To be noted: wild-type GLUT3 in hxt^0 yeast cells, 3 mM glucose, uptake 10 min; read-out: IC50 for GLUT3 transport inhibition. It counts as cell-based. An excerpt: To experimentally validate the ligand candidates determined by the virtual ligand screening, we tested their effect on GLUT3 transport activity. For this, we used the recently established assay system[67] in which GLUT3 is expressed in a yeast strain devoid of endogenous hexose transporters (hxt^0) so that glucose uptake into cells relies solely on the activity of GLUT3.
We determined GLUT3 transport activity by measuring the accumulation of radioactive glucose inside whole hxt^0 yeast cells (see “Materials and methods” for details). To select an appropriate substrate concentration for transport inhibition screening, we assessed the KM of glucose for GLUT3 in hxt^0 cells. […] Indeed, functional expression of human GLUTs in hxt^0 cells often requires mutations in genes related to yeast lipid composition[65],[73] as well as single-site mutations that may favor the outward-facing conformation of the transporters[65]–[67].
Hexose transporter deficient yeast strains (hxt^0) EBY.VW4000 for expression of GLUT5, EBY.S7 (carrying the fgy1 mutation) for expression of GLUT1-3, and SDY.022 (EBY.S7 Δerg4) for expression of GLUT4 cells, and corresponding plasmids[65],[66],[73] were from the labs of Drs. Eckhard Boles and Mislav Oreb (Goethe University, Germany). Media ingredients and buffer components were from VWR or Millipore Sigma. Commercial providers for chemicals tested for GLUT3 inhibition are listed in Supplementary Table S1. C^14-glucose was from Moravek Inc (Brea, CA, USA). Cancer cell lines were from ATCC (https://www.atcc.org).
The plasmids containing functional constructs of GLUT1-5 were transformed in the corresponding hxt^0 strains[65],[66],[73] (EBY.VW4000 for GLUT5S72Y, EBY.S7 for GLUT1, GLUT2∆loopS_Q455R, GLUT3 and GLUT3S66Y, and SDY.022 for GLUT4) and grown on 2% (w/v) agar plates of the respective media supplemented with 1% (w/v) maltose. An initial culture of ~ 10 ml was started with a few colonies and grown for 2–3 days if the media was SC-uracil with 1% (w/v) maltose (GLUT1, GLUT3, GLUT4) or 1–2 days if the media was YEP with 1% (w/v) maltose and 100 µg/ml geneticin G418 (GLUT2∆loopS_Q455R and GLUT5S72Y). Cells were washed once in the corresponding media in which maltose was substituted with 0.1–2% hexose substrate for the expressing GLUT (i.e., SC-uracil, 2% (w/v) glucose for GLUT1; SC-uracil, 0.2% (w/v/) glucose for GLUT3 and GLUT4; YEP, 0.2% (w/v) glucose, 100 µg/ml geneticin G418 for GLUT2∆loopS_Q455R, and YEP, 2% (w/v) fructose for GLUT5 S72Y). Then, cells were transferred in the same media so that OD600nm ~ 0.5 and grown further for 1–2 days.
For transport activity assay, cells in the hexose media were centrifuged (1000×g, 5 min, room temperature), washed once with PBS buffer (10 mM Na2HPO4, 1.8 mM KH2PO4, 2.7 mM KCl, 137 mM NaCl, pH 7.4), and resuspended in PBS buffer at an OD600nm ~ 10; each assay contained 100 µl of this cell solution. Transport activity assay was started by adding C^14-hexose at a substrate concentration corresponding to the respective KM (5 mM glucose for GLUT1 or GLUT4, 3 mM glucose for GLUT3 or 1.5 mM glucose for GLUT3S66Y, 15 mM glucose for GLUT2∆loopS_Q455R, and 10 mM fructose for GLUT5S72Y); for determining the glucose KM in GLUT3 and GLUT3S66Y, substrate concentrations were varied accordingly. […] The filtration membranes were transferred into scintillation vials with 10 ml of Scintillation Solution (BioSafeII; Research Products International, Mount Prospect, IL, USA), and vortexed briefly. The radioactivity was determined with a scintillation counter (Tri-carb 2900TR, Perkin Elmer, USA).
For the compound `COc1ccccc1-n1c(/C=C/c2ccc(O)cc2)nc2ccc(Br)cc2c1=O` [G3iB, 6-bromo-2-[(E)-2-(4-hydroxyphenyl)ethenyl]-3-(2-methoxyphenyl)quinazolin-4(3H)-one], the half-inhibitory concentration (IC50) came out at 12.2 ± 4 µM.

On to `O=C(Nc1cccc(Cl)c1)c1cccc(NC(=O)c2cccc([N+](=O)[O-])c2)c1` [G3iE, N-{3-[(3-chloroanilino)carbonyl]phenyl}-3-nitrobenzamide], for which the IC50 was 23.6 ± 1.9 µM.

For the compound `Cc1ccccc1CN(Cc1nnc(C(C)(C)C)o1)c1ccc2nc(O)[nH]c2c1` [G3iF], the IC50 turned out to be 38.4 ± 11.8 µM.

Turning to `Cc1cccnc1OC1CCN(c2cc(N3CCCC3CO)ncn2)CC1` (stereo not drawn) [G3iC], the IC50 worked out at 12.5 ± 4.4 µM.

Turning to `Cc1cc(NC(=O)CCC2Cc3ccccc3NC2=O)nc(-c2ccccc2)n1` (stereo not drawn) [G3iD], the IC50 turned out to be 19.3 ± 4.7 µM.

On to `CC(=O)Nc1ccc(S(=O)(=O)Nc2ccc(Nc3cc(N(C)C)nc(C)n3)cc2)cc1` [G3iA, N-(4-{[(4-{[6-(dimethylamino)-2-methylpyrimidin-4-yl]amino}phenyl)amino]sulfonyl}phenyl)acetamide], for which the IC50 was found to be 7.01 ± 1.02 µM.
